Assays:
Assay in all cases: relative viability (nuclei count vs DMSO), 5 days (fraction); higher = more cells survive
XMD13-2 + Linsitinib = compound: C1CC1C(=O)NC2=NNC3=C2C=CC(=C3)C4=CC(=CC=C4)C(=O)NC5CC5 [XMD13-2] + C[C@]1(O)C[C@@H](c2nc(-c3ccc4ccc(-c5ccccc5)nc4c3)c3c(N)nccn32)C1 [Linsitinib] (partner 1 µM)
Summary of the method: (§1)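 Each reported value is a median over duplicate plates. It expresses relative viability: treated-well nuclei count divided by vehicle-well nuclei count. Lung cancer cell lines in 1536-well plates were dosed by pin tool a day after seeding, alone with one drug or with a fixed anchor-drug dose plus five library-drug doses (not always all listed) in √10 steps, and nuclei were counted after 5 days.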

XMD13-2 + Tozasertib = compound: C1CC1C(=O)NC2=NNC3=C2C=CC(=C3)C4=CC(=CC=C4)C(=O)NC5CC5 [XMD13-2] + Cc1cc(Nc2cc(N3CCN(C)CC3)nc(Sc3ccc(NC(=O)C4CC4)cc3)n2)n[nH]1 [Tozasertib] (partner 0.1 µM)
Summary of the method: as §1

XMD13-2 + Vorinostat = compound: C1CC1C(=O)NC2=NNC3=C2C=CC(=C3)C4=CC(=CC=C4)C(=O)NC5CC5 [XMD13-2] + O=C(CCCCCCC(=O)Nc1ccccc1)NO [Vorinostat] (partner 1 µM)
Summary of the method: as §1

Dasatinib + Navitoclax = compound: Cc1nc(Nc2ncc(C(=O)Nc3c(C)cccc3Cl)s2)cc(N2CCN(CCO)CC2)n1 [Dasatinib] + CC1(C)CCC(c2ccc(Cl)cc2)=C(CN2CCN(c3ccc(C(=O)NS(=O)(=O)c4ccc(N[C@H](CCN5CCOCC5)CSc5ccccc5)c(S(=O)(=O)C(F)(F)F)c4)cc3)CC2)C1 [Navitoclax] (partner 0.5 µM)
Summary of the method: as §1

Cell Line	relative viability (XMD13-2 + Linsitinib; first compound 0.05 µM)	relative viability (XMD13-2 + Linsitinib; first compound 0.1581 µM)	relative viability (XMD13-2 + Linsitinib; first compound 0.5 µM)	relative viability (XMD13-2 + Linsitinib; first compound 1.581 µM)	relative viability (XMD13-2 + Linsitinib; first compound 5 µM)	relative viability (XMD13-2 + Tozasertib; first compound 0.05 µM)	relative viability (XMD13-2 + Tozasertib; first compound 0.1581 µM)	relative viability (XMD13-2 + Tozasertib; first compound 0.5 µM)	relative viability (XMD13-2 + Tozasertib; first compound 1.581 µM)	relative viability (XMD13-2 + Tozasertib; first compound 5 µM)	relative viability (XMD13-2 + Vorinostat; first compound 0.05 µM)	relative viability (XMD13-2 + Vorinostat; first compound 0.1581 µM)	relative viability (XMD13-2 + Vorinostat; first compound 0.5 µM)	relative viability (XMD13-2 + Vorinostat; first compound 1.581 µM)	relative viability (XMD13-2 + Vorinostat; first compound 5 µM)	relative viability (Dasatinib + Navitoclax; first compound 0.005 µM)	relative viability (Dasatinib + Navitoclax; first compound 0.01581 µM)	relative viability (Dasatinib + Navitoclax; first compound 0.05 µM)	relative viability (Dasatinib + Navitoclax; first compound 0.1581 µM)	relative viability (Dasatinib + Navitoclax; first compound 0.5 µM)
NCI-H2228	0.735	0.83	0.768	0.546	0.622	0.267	0.32	0.273	0.209	0.237	0.642	0.573	0.507	0.76	0.752	0.845	0.644	1.44	0.475	0.249
COR-L 105	1.04	1.13	1	0.875	0.797	0.374	0.385	0.339	0.376	0.425	0.781	0.929	1.01	0.79	0.847	0.588	0.49	0.52	0.368	0.278
LU99A	0.609	0.552	0.591	0.445	0.463	0.301	0.294	0.287	0.263	0.272	0.536	0.43	0.522	0.561	0.468	0.748	0.924	0.88	0.828	0.385
H3255	1.12	1	0.946	0.97	0.94	0.567	0.844	0.757	0.487	0.507	0.839	0.716	0.746	–	0.662	0.542	0.527	0.388	0.187	0.115
NCI-H1734	0.893	0.996	0.938	0.784	0.743	0.258	0.245	0.271	0.228	0.205	1.02	0.777	0.753	0.685	0.547	0.729	0.695	0.629	0.404	0.374
NCI-H1915	1.15	1.13	1.07	1.1	1.09	0.48	0.488	0.48	0.412	0.335	0.582	0.486	0.5	0.486	0.474	0.803	0.728	0.75	0.44	0.261
NCI-H2009	1.19	1.19	1.13	1.2	1.16	0.849	0.7	0.798	0.728	0.749	0.838	0.732	0.835	0.783	0.804	1.23	1.12	1.3	0.761	0.235
NCI-H1651	0.964	0.961	1.05	1.07	1.01	0.721	0.807	0.64	0.759	0.672	0.586	0.561	0.565	0.593	0.613	0.962	0.806	0.759	0.76	0.611
HOP-62	1.03	0.971	1	1.09	0.913	0.363	0.418	0.399	0.393	0.271	0.612	0.587	0.658	0.694	0.537	1.02	1.01	0.829	1.09	0.372
CAL-12T	0.802	0.764	0.837	0.68	0.843	0.344	0.41	0.307	0.31	0.368	0.76	0.652	0.792	0.71	1.06	1.36	1.17	1.49	1.35	0.97
NCI-H3122	1.02	1.01	1.04	1.06	0.951	0.467	0.395	0.378	0.377	0.373	1.04	0.987	1.1	0.995	0.941	1.03	1.01	1.04	0.977	0.792
NCI-H1395	1.06	0.984	1	1.11	1.28	0.716	0.735	0.796	0.787	0.807	0.732	0.871	0.651	0.594	0.707	1.01	0.971	0.91	0.609	0.476
PC-14	0.986	1.04	0.958	0.878	0.927	0.605	0.657	0.632	0.608	0.562	0.951	0.934	0.749	0.825	0.975	0.976	0.982	1.09	0.647	0.0883

Source: the supplement of paper PMC10307832
